Reference: the NIST ThermoML archive (doi:10.1007/s10765-005-5571-9)
± gives the expanded uncertainty stated by the source.

Tests used:
[1] = xn = mol fraction of the nth substance listed; conditions: 298 K, 101.3 kPa, Liquid
[2] = 298.15 K; 101.3 kPa; Liquid

CC(=O)OCCC(C)C [3-methylbutyl ethanoate] + C=Cc1ccccc1
mass density ([1]; x1 = 0.0293): 900.833 ± 0.19 kg/m3 | mass density ([1]; x1 = 0.0529): 899.946 ± 0.2 kg/m3 | mass density ([1]; x1 = 0.0997): 898.18 ± 0.2 kg/m3 | mass density ([1]; x1 = 0.1502): 896.274 ± 0.21 kg/m3 | mass density ([1]; x1 = 0.2): 894.422 ± 0.21 kg/m3 | mass density ([1]; x1 = 0.2502): 892.59 ± 0.22 kg/m3 | mass density ([1]; x1 = 0.3064): 890.541 ± 0.23 kg/m3 | mass density ([1]; x1 = 0.3509): 888.929 ± 0.24 kg/m3 | mass density ([1]; x1 = 0.4042): 887.046 ± 0.25 kg/m3 | mass density ([1]; x1 = 0.4508): 885.398 ± 0.26 kg/m3 | mass density ([1]; x1 = 0.5011): 883.646 ± 0.27 kg/m3 | mass density ([1]; x1 = 0.5571): 881.719 ± 0.28 kg/m3 | mass density ([1]; x1 = 0.6002): 880.257 ± 0.28 kg/m3 | mass density ([1]; x1 = 0.6507): 878.546 ± 0.29 kg/m3 | mass density ([1]; x1 = 0.7003): 876.895 ± 0.3 kg/m3 | mass density ([1]; x1 = 0.7514): 875.198 ± 0.31 kg/m3 | mass density ([1]; x1 = 0.7999): 873.614 ± 0.32 kg/m3 | mass density ([1]; x1 = 0.8507): 871.983 ± 0.33 kg/m3 | mass density ([1]; x1 = 0.9005): 870.41 ± 0.34 kg/m3 | mass density ([1]; x1 = 0.9499): 868.881 ± 0.35 kg/m3 | mass density ([1]; x1 = 0.9747): 868.119 ± 0.36 kg/m3 | mass density ([1]; x1 = 1): 867.356 ± 0.36 kg/m3

C=CC(=O)OCCCC [butyl 2-propenoate]
mass density [2]: 893.947 ± 0.2 kg/m3

C=Cc1ccccc1 [styrene]
mass density [2]: 901.941 ± 0.19 kg/m3

CC(=O)OCCC(C)C [3-methylbutyl ethanoate] + C=CC(=O)OCCCC
mass density ([1]; x1 = 1): 867.356 ± 0.36 kg/m3

C=C(C)C(=O)OC [methyl methacrylate]
mass density [2]: 937.628 ± 0.16 kg/m3

CC(=O)OCCC(C)C [3-methylbutyl ethanoate]
mass density [2]: 867.356 ± 0.36 kg/m3

C=CC(=O)OCCCC [butyl 2-propenoate] + CC(=O)OCCC(C)C
mass density ([1]; x2 = 0): 893.947 ± 0.2 kg/m3 | mass density ([1]; x2 = 0.0257): 893.222 ± 0.2 kg/m3 | mass density ([1]; x2 = 0.0496): 892.552 ± 0.2 kg/m3 | mass density ([1]; x2 = 0.1035): 891.059 ± 0.21 kg/m3 | mass density ([1]; x2 = 0.1504): 889.769 ± 0.21 kg/m3 | mass density ([1]; x2 = 0.2): 888.407 ± 0.22 kg/m3 | mass density ([1]; x2 = 0.2504): 887.04 ± 0.23 kg/m3 | mass density ([1]; x2 = 0.2999): 885.689 ± 0.23 kg/m3 | mass density ([1]; x2 = 0.3512): 884.304 ± 0.24 kg/m3 | mass density ([1]; x2 = 0.4001): 882.985 ± 0.25 kg/m3 | mass density ([1]; x2 = 0.4521): 881.596 ± 0.26 kg/m3 | mass density ([1]; x2 = 0.5): 880.304 ± 0.27 kg/m3 | mass density ([1]; x2 = 0.55): 878.984 ± 0.28 kg/m3 | mass density ([1]; x2 = 0.6): 877.664 ± 0.28 kg/m3 | mass density ([1]; x2 = 0.65): 876.356 ± 0.29 kg/m3 | mass density ([1]; x2 = 0.7003): 875.048 ± 0.3 kg/m3 | mass density ([1]; x2 = 0.7502): 873.751 ± 0.31 kg/m3 | mass density ([1]; x2 = 0.7998): 872.467 ± 0.32 kg/m3 | mass density ([1]; x2 = 0.85): 871.176 ± 0.33 kg/m3 | mass density ([1]; x2 = 0.9): 869.889 ± 0.34 kg/m3 | mass density ([1]; x2 = 0.95): 868.618 ± 0.35 kg/m3 | mass density ([1]; x2 = 0.9752): 867.98 ± 0.36 kg/m3

C=C(C)C(=O)OC [methyl methacrylate] + CC(=O)OCCC(C)C
mass density ([1]; x2 = 0): 937.628 ± 0.16 kg/m3

C=CC(=O)OCC [ethyl propenoate] + CC(=O)OCCC(C)C
mass density ([1]; x2 = 0): 916.124 ± 0.2 kg/m3 | mass density ([1]; x2 = 0.031): 913.999 ± 0.2 kg/m3 | mass density ([1]; x2 = 0.0501): 912.721 ± 0.2 kg/m3 | mass density ([1]; x2 = 0.0999): 909.503 ± 0.21 kg/m3 | mass density ([1]; x2 = 0.1505): 906.326 ± 0.22 kg/m3 | mass density ([1]; x2 = 0.2012): 903.286 ± 0.23 kg/m3 | mass density ([1]; x2 = 0.2501): 900.442 ± 0.23 kg/m3 | mass density ([1]; x2 = 0.301): 897.604 ± 0.24 kg/m3 | mass density ([1]; x2 = 0.3512): 894.897 ± 0.25 kg/m3 | mass density ([1]; x2 = 0.402): 892.257 ± 0.26 kg/m3 | mass density ([1]; x2 = 0.4505): 889.84 ± 0.27 kg/m3 | mass density ([1]; x2 = 0.501): 887.406 ± 0.28 kg/m3 | mass density ([1]; x2 = 0.5502): 885.117 ± 0.29 kg/m3 | mass density ([1]; x2 = 0.6002): 882.87 ± 0.29 kg/m3 | mass density ([1]; x2 = 0.6518): 880.634 ± 0.3 kg/m3 | mass density ([1]; x2 = 0.7001): 878.602 ± 0.31 kg/m3 | mass density ([1]; x2 = 0.7499): 876.582 ± 0.32 kg/m3 | mass density ([1]; x2 = 0.8008): 874.573 ± 0.33 kg/m3 | mass density ([1]; x2 = 0.8514): 872.644 ± 0.34 kg/m3 | mass density ([1]; x2 = 0.9001): 870.846 ± 0.34 kg/m3 | mass density ([1]; x2 = 0.9503): 869.055 ± 0.35 kg/m3 | mass density ([1]; x2 = 0.9752): 868.197 ± 0.36 kg/m3

C=Cc1ccccc1 [styrene] + CC(=O)OCCC(C)C
mass density ([1]; x2 = 0): 901.941 ± 0.19 kg/m3

C=CC(=O)OCC [ethyl propenoate]
mass density [2]: 916.124 ± 0.2 kg/m3

CC(=O)OCCC(C)C [3-methylbutyl ethanoate] + C=CC(=O)OCC
mass density ([1]; x1 = 1): 867.356 ± 0.36 kg/m3

CC(=O)OCCC(C)C [3-methylbutyl ethanoate] + C=C(C)C(=O)OC
mass density ([1]; x1 = 0.0263): 934.984 ± 0.16 kg/m3 | mass density ([1]; x1 = 0.0515): 932.526 ± 0.17 kg/m3 | mass density ([1]; x1 = 0.1007): 927.871 ± 0.18 kg/m3 | mass density ([1]; x1 = 0.1599): 922.52 ± 0.19 kg/m3 | mass density ([1]; x1 = 0.2002): 919.025 ± 0.2 kg/m3 | mass density ([1]; x1 = 0.25): 914.86 ± 0.21 kg/m3 | mass density ([1]; x1 = 0.3053): 910.408 ± 0.22 kg/m3 | mass density ([1]; x1 = 0.3502): 906.93 ± 0.23 kg/m3 | mass density ([1]; x1 = 0.4005): 903.17 ± 0.24 kg/m3 | mass density ([1]; x1 = 0.4504): 899.578 ± 0.25 kg/m3 | mass density ([1]; x1 = 0.5005): 896.102 ± 0.26 kg/m3 | mass density ([1]; x1 = 0.5502): 892.767 ± 0.27 kg/m3 | mass density ([1]; x1 = 0.6005): 889.513 ± 0.28 kg/m3 | mass density ([1]; x1 = 0.6538): 886.188 ± 0.29 kg/m3 | mass density ([1]; x1 = 0.7003): 883.384 ± 0.3 kg/m3 | mass density ([1]; x1 = 0.7508): 880.451 ± 0.31 kg/m3 | mass density ([1]; x1 = 0.8003): 877.66 ± 0.32 kg/m3 | mass density ([1]; x1 = 0.85): 874.956 ± 0.33 kg/m3 | mass density ([1]; x1 = 0.9002): 872.311 ± 0.34 kg/m3 | mass density ([1]; x1 = 0.9499): 869.798 ± 0.35 kg/m3 | mass density ([1]; x1 = 0.9751): 868.558 ± 0.36 kg/m3 | mass density ([1]; x1 = 1): 867.356 ± 0.36 kg/m3
